From patent US4659804A, “(Bis-1,7-S-acetamidomethyl-L-cysteine)salmon calcitonin” (Armour Pharmaceutical Company, priority 1984, dated 1987)

Test system: serum calcium concentration
Assay: Biological assay of calcitonin analogs in vivo: reduction of serum calcium concentration, 2×2 parallel line assay
Design: species or system Rats
Conditions: standard salmon calcitonin used in the assay
Experimental: The biological potency of [1,7-Di-Cys(Acm)]salmon calcitonin was determined by comparing the reduction of serum calcium concentration which followed administration by graded doses of [1,7-Di-Cys(Acm)]SCT and synthetic salmon calcitonin standard. Rats were divided into four groups of seven animals, and each group was assigned at random to a dose of standard or test solution. Low and high doses were chosen from the linear portion of the dose-response curve. For the salmon calcitonin standard, the values were 0.7 and 2.1 mcg. peptide/100 g. body weight (BW). This dose approximates 3 and 9 MU/100 g. BW. Peptides were given by subcutaneous injection (0.2 ml/100 g. BW) and blood was withdrawn 1 hour later for serum calcium determination. Sera are processed and analyzed within two hours of collection. […]. Results were analyzed by a 2×2 parallel line assay [Gaddum, J. H., J. Pharm. Pharmacol., 6, 345 (1953)]. The standard salmon calcitonin used was independently determined to contain greater than 4,000 IU/mg. [1,7-Di-Cys(Acm)]SCT assayed at 4250 IU/mg.

CC(C)C[C@H](NC(=O)[C@H](CCCCN)NC(=O)CNC(=O)[C@H](CC(C)C)NC(=O)[C@@H](NC(=O)[C@@H]1CSSC[C@H](N)C(=O)N[C@@H](CO)C(=O)N[C@@H](CC(N)=O)C(=O)N[C@@H](CC(C)C)C(=O)N[C@@H](CO)C(=O)N[C@@H]([C@@H](C)O)C(=O)N1)C(C)C)C(=O)N[C@@H](CO)C(=O)N[C@@H](CCC(N)=O)C(=O)N[C@@H](CCC(=O)O)C(=O)N[C@@H](CC(C)C)C(=O)N[C@@H](Cc1c[nH]cn1)C(=O)N[C@@H](CCCCN)C(=O)N[C@@H](CC(C)C)C(=O)N[C@@H](CCC(N)=O)C(=O)N[C@H](C(=O)N[C@@H](Cc1ccc(O)cc1)C(=O)N1CCC[C@H]1C(=O)N[C@@H](CCCNC(=N)N)C(=O)N[C@H](C(=O)N[C@@H](CC(N)=O)C(=O)N[C@H](C(=O)NCC(=O)N[C@@H](CO)C(=O)NCC(=O)N[C@H](C(=O)N1CCC[C@H]1C(N)=O)[C@@H](C)O)[C@@H](C)O)[C@@H](C)O)[C@@H](C)O [standard salmon calcitonin, Salmon calcitonin]
biological potency of the standard, independently determined: greater than 4,000 IU/mg
